Reference: patent US8962842B2, “2-pyridone antimicrobial compositions” (priority 2010, dated 2015)
Where two headings read alike, the source gives them in different places.

Tests used:
[1] = tested on: Escherichia coli (6 strains); test: MIC range, broader panel of Quotient Bioresearch strains (Table 4); type: cell-based; conditions: for MIC50: read-out: MIC Range Median, Escherichia coli (6 strains)
[2] = tested on: Klebsiella pneumonia (4 strains); test: as above; type: cell-based; conditions: Klebsiella pneumoniae; for MIC50: read-out: MIC Range Median, Klebsiella pneumonia (4 strains)
[3] = tested on: Pseudomonas aeruginosa (12 strains); test: as above; type: cell-based; conditions: for MIC50: read-out: MIC Range Median, Pseudomonas aeruginosa (12 strains)
[4] = tested on: Burkholderia cepacia (5 strains); test: as above; type: cell-based; conditions: for MIC50: read-out: MIC Range Median, Burkholderia cepacia (5 strains)
[5] = tested on: Haemophilus influenza (5 strains); test: as above; type: cell-based, Haemophilus influenzae; conditions: for MIC50: 16 h, Median of the strain panel
[6] = tested on: Acinetobacter baumannii (12 strains); test: as above; type: cell-based; conditions: for MIC50: read-out: MIC Range Median, Acinetobacter baumannii (12 strains)
[7] = tested on: Acinetobacter baumannii, quinolone-resistant strains (Quotient Bioresearch catalogue); test: MIC against pathogens resistant against quinolones (Table 5); type: cell-based
[8] = Metabolic stability in liver microsomes +/- S9 fraction (Table 8); type: in vitro ADME; conditions: 1 μM
Protocol: Metabolic stability of a select number of examples was tested in liver microsomes+/−addition of S9 fraction as described by Kuhnz, W. and Gieschen, H. (1998), Drug Metab. Dispos., 1120-1127. Test concentration was 1 μM and HPLC/MS-MS was used for detection.

[9] = tested on: Bacterial strains injected into thigh muscles; type: in vivo, mice
[10] = physchem; type: physicochemical; conditions: thermodynamic from solid
Protocol: The solutions were incubated at room temperature for 24 hours before quantification by HPLC detection. Aqueous solubility was evaluated in simulated gastric fluid (SGF), simulated intestinal fluid (SIF) and phosphate buffer saline (PBS) pH 7.4. Aqueous solubility is expressed in Table 11 as mean solubility in μM.

[11] = tested on: Staphylococcus aureus (16 strains); test: MIC range, broader panel of Quotient Bioresearch strains (Table 3); conditions: for MIC50: read-out: MIC Range Median, Staphylococcus aureus (16 strains)
[12] = tested on: Enterococcus faecalis (5 strains); test: as above; conditions: for MIC50: read-out: MIC Range Median, Enterococcus faecalis (5 strains)
[13] = tested on: Enterococcus faecium (3 strains); test: as above; conditions: for MIC50: read-out: MIC Range Median, Enterococcus faecium (3 strains)
[14] = tested on: Streptococcus pneumonia (5 strains); test: as above; conditions: Streptococcus pneumoniae; for MIC50: read-out: MIC Range Median, Streptococcus pneumonia (5 strains)
[15] = tested on: Streptococcus pyogenes (4 strains); test: as above; conditions: for MIC50: read-out: MIC Range Median, Streptococcus pyogenes (4 strains)
[16] = tested on: Group C Streptococcus (4 strains); test: as above; conditions: for MIC50: read-out: MIC Range Median, Group C Streptococcus (4 strains)
[17] = target: bacterial gyrase (Escherichia coli, UniProt P0AES4+P0AES6); test: Inhibition of topoisomerases activity in vitro, Topogen protocol TG1003 (Table 7); type: biochemical
Sequence of bacterial gyrase (P0AES4 whole entry, one chain of several): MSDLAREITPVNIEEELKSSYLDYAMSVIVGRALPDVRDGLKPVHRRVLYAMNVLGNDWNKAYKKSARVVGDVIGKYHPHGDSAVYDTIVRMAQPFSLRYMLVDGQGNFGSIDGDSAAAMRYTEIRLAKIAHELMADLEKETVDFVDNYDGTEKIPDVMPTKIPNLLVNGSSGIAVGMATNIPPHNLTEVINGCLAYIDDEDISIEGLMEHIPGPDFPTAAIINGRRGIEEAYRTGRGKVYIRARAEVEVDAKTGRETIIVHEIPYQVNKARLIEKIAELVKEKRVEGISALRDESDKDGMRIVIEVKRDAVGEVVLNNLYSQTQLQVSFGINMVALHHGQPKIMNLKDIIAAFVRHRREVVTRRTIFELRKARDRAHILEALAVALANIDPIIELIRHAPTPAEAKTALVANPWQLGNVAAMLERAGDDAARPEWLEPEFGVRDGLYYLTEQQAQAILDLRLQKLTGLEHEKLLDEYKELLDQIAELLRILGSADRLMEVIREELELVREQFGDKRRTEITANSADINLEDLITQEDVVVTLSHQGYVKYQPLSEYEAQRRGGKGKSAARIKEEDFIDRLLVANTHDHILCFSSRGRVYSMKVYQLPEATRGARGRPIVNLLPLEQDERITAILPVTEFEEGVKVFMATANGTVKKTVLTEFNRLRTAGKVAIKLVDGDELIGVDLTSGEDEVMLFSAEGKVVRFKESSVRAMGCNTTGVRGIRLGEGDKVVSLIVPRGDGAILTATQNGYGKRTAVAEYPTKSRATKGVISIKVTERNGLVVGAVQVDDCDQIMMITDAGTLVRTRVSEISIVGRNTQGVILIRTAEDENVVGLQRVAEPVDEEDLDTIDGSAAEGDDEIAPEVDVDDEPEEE

[18] = target: bacterial topoisomerase IV (Escherichia coli, UniProt P0AFI2+P20083); test: Inhibition of topoisomerases activity in vitro, Topogen protocol TG1007 (Table 7); type: biochemical
Sequence of bacterial topoisomerase IV (P20083 whole entry): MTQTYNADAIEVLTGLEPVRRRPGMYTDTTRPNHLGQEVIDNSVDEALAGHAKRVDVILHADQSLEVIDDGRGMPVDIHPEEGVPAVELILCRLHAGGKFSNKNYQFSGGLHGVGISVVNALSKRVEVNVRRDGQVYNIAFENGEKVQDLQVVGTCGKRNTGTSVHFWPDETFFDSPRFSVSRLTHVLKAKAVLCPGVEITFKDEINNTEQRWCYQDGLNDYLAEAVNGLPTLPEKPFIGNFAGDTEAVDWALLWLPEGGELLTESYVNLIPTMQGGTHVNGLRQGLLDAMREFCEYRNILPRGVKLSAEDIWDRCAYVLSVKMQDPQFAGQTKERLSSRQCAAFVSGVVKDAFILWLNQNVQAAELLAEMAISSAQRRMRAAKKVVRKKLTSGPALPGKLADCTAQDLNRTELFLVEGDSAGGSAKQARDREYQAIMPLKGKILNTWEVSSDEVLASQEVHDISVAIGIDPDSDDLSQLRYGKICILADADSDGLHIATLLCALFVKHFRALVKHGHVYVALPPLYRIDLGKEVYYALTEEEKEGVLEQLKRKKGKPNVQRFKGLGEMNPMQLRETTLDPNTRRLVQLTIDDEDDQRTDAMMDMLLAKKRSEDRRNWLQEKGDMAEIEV
Sequence of bacterial topoisomerase IV (P0AFI2 whole entry): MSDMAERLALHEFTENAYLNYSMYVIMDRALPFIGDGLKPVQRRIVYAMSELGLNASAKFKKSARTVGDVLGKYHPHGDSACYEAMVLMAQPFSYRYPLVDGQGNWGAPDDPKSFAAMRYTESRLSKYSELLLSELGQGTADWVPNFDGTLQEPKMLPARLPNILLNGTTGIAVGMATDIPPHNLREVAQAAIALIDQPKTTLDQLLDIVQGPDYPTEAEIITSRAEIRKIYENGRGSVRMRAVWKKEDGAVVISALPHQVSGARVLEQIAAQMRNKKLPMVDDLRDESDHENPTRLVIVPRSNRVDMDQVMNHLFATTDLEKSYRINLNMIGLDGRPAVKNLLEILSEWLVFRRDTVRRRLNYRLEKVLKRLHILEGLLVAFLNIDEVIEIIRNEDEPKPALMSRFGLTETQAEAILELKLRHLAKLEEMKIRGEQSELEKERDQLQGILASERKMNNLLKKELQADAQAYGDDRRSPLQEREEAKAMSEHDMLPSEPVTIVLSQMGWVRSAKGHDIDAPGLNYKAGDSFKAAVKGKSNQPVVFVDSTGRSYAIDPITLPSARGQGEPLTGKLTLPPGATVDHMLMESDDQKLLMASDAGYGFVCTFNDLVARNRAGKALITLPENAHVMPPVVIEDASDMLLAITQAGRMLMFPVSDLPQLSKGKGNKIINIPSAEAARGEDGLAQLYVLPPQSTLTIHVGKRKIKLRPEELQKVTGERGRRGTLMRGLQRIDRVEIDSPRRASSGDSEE

[19] = read-out: MIC Range High, Escherichia coli (6 strains)
[20] = read-out: MIC Range Low, Escherichia coli (6 strains)
[21] = read-out: MIC Range High, Klebsiella pneumonia (4 strains)
[22] = read-out: MIC Range Low, Klebsiella pneumonia (4 strains)
[23] = read-out: MIC Range High, Pseudomonas aeruginosa (12 strains)
[24] = read-out: MIC Range Low, Pseudomonas aeruginosa (12 strains)
[25] = read-out: MIC Range High, Burkholderia cepacia (5 strains)
[26] = read-out: MIC Range Low, Burkholderia cepacia (5 strains)
[27] = High of the strain panel, read-out: MIC Range High, Haemophilus influenza (5 strains)
[28] = Low of the strain panel, read-out: MIC Range Low, Haemophilus influenza (5 strains)
[29] = read-out: MIC Range High, Acinetobacter baumannii (12 strains)
[30] = read-out: MIC Range Low, Acinetobacter baumannii (12 strains)
[31] = read-out: MIC Range High, Staphylococcus aureus (16 strains)
[32] = read-out: MIC Range Low, Staphylococcus aureus (16 strains)
[33] = read-out: MIC Range Low, Enterococcus faecalis (5 strains)
[34] = read-out: MIC Range Low, Enterococcus faecium (3 strains)
[35] = read-out: MIC Range Low, Streptococcus pneumonia (5 strains)
[36] = read-out: MIC Range High, Streptococcus pyogenes (4 strains)
[37] = read-out: MIC Range Low, Streptococcus pyogenes (4 strains)
[38] = read-out: MIC Range High, Group C Streptococcus (4 strains)
[39] = read-out: MIC Range Low, Group C Streptococcus (4 strains)
[40] = read-out: MIC Range High, Enterococcus faecalis (5 strains)

Cc1c(-c2ccc(O)cc2)ccn2c(=O)c(C(=O)[O-])cc(C3CC3)c12.[K+] [Example 46 K salt, potassium 1-cyclopropyl-8-(4-hydroxy-phenyl)-9-methyl-4-oxo-4H-quinolizine-3-carboxylate] showed an MIC [1, 19] of 32 µg/mL, an MIC [1, 20] of no more than 0.015 µg/mL and an MIC50 [1] of 12 µg/mL. It also gave an MIC [2, 21] greater than 32 µg/mL, an MIC [2, 22] of 0.06 µg/mL and an MIC50 [2] of 18 µg/mL. The MIC [3, 23] was greater than 32 µg/mL, the MIC [3, 24] was 0.25 µg/mL and the MIC50 [3] was 4 µg/mL. The MIC [4, 25] was 0.12 µg/mL, the MIC [4, 26] was 0.06 µg/mL and the MIC50 [4] was 0.12 µg/mL. For the same compound, the MIC50 [5] was no more than 0.015 µg/mL, the MIC [5, 27] was no more than 0.015 µg/mL and the MIC [5, 28] was no more than 0.015 µg/mL. For the same compound, the MIC [6, 29] was 16 µg/mL, the MIC [6, 30] was 0.03 µg/mL and the MIC50 [6] was 4 µg/mL. The MIC ([7]; Acinetobacter baumannii, GN54) was 2 µg/mL, the “Mean Parent Remaining” value ([8]; Liver microsomes + S9, human) was 97% and the “Mean Parent Remaining” value ([8]; Liver microsomes + S9, mouse) was 92%. For the same compound, the “Mean Parent Remaining” value ([8]; Liver microsomes, human) was 86%, the “Mean Parent Remaining” value ([8]; Liver microsomes, mouse) was 81% and the “Log reduction (LgR) from vehicle control (CFU/g)” value (“Log reduction (LgR)” below) ([9]; E. coli ATCC 25922, mouse thigh, 30 mg/kg TDS p.o.) was 0.37. The “Log reduction (LgR)” value ([9]; MRSA ATCC 43300, mouse thigh, 30 mg/kg TDS p.o.) was 3.76, the solubility at 24 h ([10]; fassgf or other biorelevant) was 153 µM and the solubility at 24 h ([10]; pH 7.4, aqueous buffer) was 44 µM. The solubility at 24 h ([10]; simulated gastric fluid) was 7 µM, the MIC [11, 31] was 0.12 µg/mL and the MIC [11, 32] was no more than 0.015 µg/mL. The MIC50 [11] was 0.06 µg/mL, the MIC [12, 33] was no more than 0.015 µg/mL and the MIC50 [12] was 0.03 µg/mL. It also gave an MIC [13, 34] of 0.12 µg/mL, an MIC50 [13] of 0.5 µg/mL and an MIC [14, 35] of 0.06 µg/mL. It also gave an MIC50 [14] of 0.06 µg/mL, an MIC [15, 36] of 0.12 µg/mL and an MIC [15, 37] of 0.03 µg/mL. For the same compound, the MIC50 [15] was 0.06 µg/mL, the MIC [16, 38] was 0.06 µg/mL and the MIC [16, 39] was 0.03 µg/mL. The MIC50 [16] was 0.045 µg/mL.

With C[C@H]1COc2c(N3CCN(C)CC3)c(F)cc3c(=O)c(C(=O)O)cn1c23 [Levofloxacin, reference compound] the MIC ([7]; strain GN54, Acinetobacter baumannii levofloxacin-resistant clinical isolate, read-out: MIC) was no less than 16 µg/mL.

Work on Cc1c(-c2ccc(N)c(F)c2)ccn2c(=O)c(C(=O)[O-])cc(C3CC3)c12.[K+] [Example 2 K salt, potassium 8-(4-amino-3-fluoro-phenyl)-1-cyclopropyl-9-methyl-4-oxo-4H-quinolizine-3-carboxylate] yielded an MIC [1, 19] of 16 µg/mL, an MIC [1, 20] of no more than 0.015 µg/mL and an MIC50 [1] of 16 µg/mL. For the same compound, the MIC [2, 21] was 16 µg/mL, the MIC [2, 22] was 0.12 µg/mL and the MIC50 [2] was 10 µg/mL. The MIC [3, 23] was 16 µg/mL, the MIC [3, 24] was 0.5 µg/mL and the MIC50 [3] was 4 µg/mL. For the same compound, the MIC [4, 25] was 0.25 µg/mL, the MIC [4, 26] was 0.06 µg/mL and the MIC50 [4] was 0.12 µg/mL. It also gave an MIC50 [5] of no more than 0.015 µg/mL, an MIC [5, 27] of no more than 0.015 µg/mL and an MIC [5, 28] of no more than 0.015 µg/mL. For the same compound, the MIC [6, 29] was 16 µg/mL, the MIC [6, 30] was 0.06 µg/mL and the MIC50 [6] was 6 µg/mL. The MIC ([7]; Acinetobacter baumannii, GN54) was 2 µg/mL, the IC50 [17] was no more than 1.42 µM and the IC50 [18] was 4.43 µM. For the same compound, the “Mean Parent Remaining” value ([8]; Liver microsomes + S9, human) was 95%, the “Mean Parent Remaining” value ([8]; Liver microsomes + S9, mouse) was 58% and the “Mean Parent Remaining” value ([8]; Liver microsomes, human) was 90%. The “Mean Parent Remaining” value ([8]; Liver microsomes, mouse) was 53%, the solubility at 24 h ([10]; fassgf or other biorelevant) was 171 µM and the solubility at 24 h ([10]; pH 7.4, aqueous buffer) was 28 µM. The solubility at 24 h ([10]; simulated gastric fluid) was 21 µM, the MIC [11, 31] was 0.25 µg/mL and the MIC [11, 32] was no more than 0.015 µg/mL. It also gave an MIC50 [11] of 0.06 µg/mL, an MIC [12, 40] of 1 µg/mL and an MIC [12, 33] of no more than 0.015 µg/mL. The MIC50 [12] was 0.03 µg/mL, the MIC [13, 34] was 0.12 µg/mL and the MIC50 [13] was 0.5 µg/mL. The MIC [14, 35] was 0.06 µg/mL, the MIC50 [14] was 0.12 µg/mL and the MIC [15, 36] was 0.12 µg/mL. It also gave an MIC [15, 37] of 0.06 µg/mL, an MIC50 [15] of 0.09 µg/mL and an MIC [16, 38] of 0.12 µg/mL. It also gave an MIC [16, 39] of 0.03 µg/mL and an MIC50 [16] of 0.06 µg/mL.

For CN[C@H](CC(C)C)C(=O)N[C@H]1C(=O)N[C@@H](CC(N)=O)C(=O)N[C@H]2C(=O)N[C@H]3C(=O)N[C@H](C(=O)N[C@H](C(=O)O)c4cc(O)cc(O)c4-c4cc3ccc4O)[C@H](O)c3ccc(c(Cl)c3)Oc3cc2cc(c3O[C@@H]2O[C@H](CO)[C@@H](O)[C@H](O)[C@H]2O[C@H]2C[C@](C)(N)[C@H](O)[C@H](C)O2)Oc2ccc(cc2Cl)[C@H]1O [vancomycin], the “Log reduction (LgR)” value ([9]; MRSA ATCC 43300, mouse thigh, 25 mg/kg i.v. once) was 2.71.

Compound Cc1c(-c2ccncc2)ccn2c(=O)c(C(=O)[O-])cc(C3CC3)c12.[K+] [Example 16 K salt, potassium 1-cyclopropyl-9-methyl-4-oxo-8-(pyridin-4-yl)-4H-quinolizine-3-carboxylate] has an MIC [1, 19] greater than 32 µg/mL, an MIC [1, 20] of 0.03 µg/mL and an MIC50 [1] greater than 32 µg/mL. For the same compound, the MIC [2, 21] was greater than 32 µg/mL, the MIC [2, 22] was 0.12 µg/mL and the MIC50 [2] was 16 µg/mL. It also gave an MIC [3, 23] greater than 32 µg/mL, an MIC [3, 24] of 2 µg/mL and an MIC50 [3] of 16 µg/mL. The MIC [4, 25] was 0.5 µg/mL, the MIC [4, 26] was 0.25 µg/mL and the MIC50 [4] was 0.25 µg/mL. The MIC50 [5] was no more than 0.015 µg/mL, the MIC [5, 27] was no more than 0.015 µg/mL and the MIC [5, 28] was no more than 0.015 µg/mL. For the same compound, the MIC [6, 29] was greater than 32 µg/mL, the MIC [6, 30] was 0.12 µg/mL and the MIC50 [6] was 16 µg/mL. For the same compound, the MIC [11, 31] was 1 µg/mL, the MIC [11, 32] was no more than 0.015 µg/mL and the MIC50 [11] was 1 µg/mL. It also gave an MIC [12, 40] of 8 µg/mL, an MIC [12, 33] of 0.25 µg/mL and an MIC50 [12] of 0.25 µg/mL. It also gave an MIC ([13]; read-out: MIC Range High, Enterococcus faecium (3 strains)) of 16 µg/mL, an MIC [13, 34] of 1 µg/mL and an MIC50 [13] of 8 µg/mL. It also gave an MIC ([14]; read-out: MIC Range High, Streptococcus pneumonia (5 strains)) of 1 µg/mL, an MIC [14, 35] of 0.5 µg/mL and an MIC50 [14] of 0.5 µg/mL. For the same compound, the MIC [15, 36] was 1 µg/mL, the MIC [15, 37] was 0.25 µg/mL and the MIC50 [15] was 0.375 µg/mL. The MIC [16, 38] was 0.5 µg/mL, the MIC [16, 39] was 0.25 µg/mL and the MIC50 [16] was 0.25 µg/mL.
